Source: PMC9164157, “Characterization and Identification of a New Daidzein Reductase Involved in (S)-Equol Biosynthesis in Clostridium sp. ZJ6” (Frontiers in Microbiology, 2022)

Key:
NATTS DZNR = molecular target: T1, NATTS DZNR (Slackia sp. NATTS, UniProt H3JUE4); test: daidzein reductase assay, HPLC; assay type: biochemical; details: NAD(P)H, anaerobic
T1 construct: gene ddce; synthetic gene in pETDuet-1, expressed in E. coli BL21 (DE3), purified
T1 sequence (H3JUE4 1-644): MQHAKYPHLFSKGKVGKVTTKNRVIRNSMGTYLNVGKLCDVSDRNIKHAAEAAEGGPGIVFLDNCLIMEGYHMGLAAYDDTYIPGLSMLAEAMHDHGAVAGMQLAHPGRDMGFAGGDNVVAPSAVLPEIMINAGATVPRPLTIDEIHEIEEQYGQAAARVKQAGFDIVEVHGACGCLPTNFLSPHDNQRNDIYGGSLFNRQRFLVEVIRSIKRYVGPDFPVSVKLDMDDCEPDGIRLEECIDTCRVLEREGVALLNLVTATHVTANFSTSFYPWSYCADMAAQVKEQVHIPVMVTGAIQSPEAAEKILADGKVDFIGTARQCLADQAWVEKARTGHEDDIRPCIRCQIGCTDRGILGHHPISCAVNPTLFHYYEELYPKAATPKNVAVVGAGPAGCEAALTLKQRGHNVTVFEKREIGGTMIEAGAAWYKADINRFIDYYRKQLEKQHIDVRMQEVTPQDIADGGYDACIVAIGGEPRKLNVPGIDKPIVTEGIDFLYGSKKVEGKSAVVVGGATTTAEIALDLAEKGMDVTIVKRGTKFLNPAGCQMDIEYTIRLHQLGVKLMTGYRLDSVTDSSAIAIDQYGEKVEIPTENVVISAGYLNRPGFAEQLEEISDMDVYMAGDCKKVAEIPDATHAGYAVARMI

Lac 20_92 DZNR = molecular target: T2, Lac 20_92 DZNR (Lactococcus garvieae, UniProt E1CIA4); test: daidzein reductase assay, HPLC; assay type: biochemical; details: NAD(P)H, anaerobic, 37°C
T2 construct: gene l-dznr; synthetic gene in pETDuet-1, expressed in E. coli BL21 (DE3), purified
T2 sequence (E1CIA4 1-644): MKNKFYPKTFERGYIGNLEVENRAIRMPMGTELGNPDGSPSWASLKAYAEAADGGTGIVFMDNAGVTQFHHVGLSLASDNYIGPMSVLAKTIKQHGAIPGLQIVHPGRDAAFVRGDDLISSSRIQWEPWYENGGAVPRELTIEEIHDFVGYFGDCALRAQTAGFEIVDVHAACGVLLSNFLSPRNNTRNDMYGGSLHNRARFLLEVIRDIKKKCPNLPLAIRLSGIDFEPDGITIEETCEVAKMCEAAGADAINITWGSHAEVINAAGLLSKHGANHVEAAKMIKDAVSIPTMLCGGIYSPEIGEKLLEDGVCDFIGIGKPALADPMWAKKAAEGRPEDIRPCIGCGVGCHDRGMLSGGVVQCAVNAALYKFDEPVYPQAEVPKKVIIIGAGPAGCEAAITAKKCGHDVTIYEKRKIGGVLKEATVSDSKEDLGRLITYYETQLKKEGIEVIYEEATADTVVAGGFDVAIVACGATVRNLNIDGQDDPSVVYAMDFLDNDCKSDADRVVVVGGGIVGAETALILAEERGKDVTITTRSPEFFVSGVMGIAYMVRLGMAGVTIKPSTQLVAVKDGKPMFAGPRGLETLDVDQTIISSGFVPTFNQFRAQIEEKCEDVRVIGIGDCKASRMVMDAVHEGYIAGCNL

O=c1c(-c2ccc(O)cc2)coc2cc(O)ccc12 [daidzein, 7-hydroxy-3-(4-hydroxyphenyl)-4H-chromen-4-one]
daidzein reductase assay, HPLC (NATTS DZNR): all recombinant proteins showed DZNR activity, which is an ability to convert DZN to DHD
daidzein reductase assay, HPLC (Lac 20_92 DZNR): all recombinant proteins showed DZNR activity, which is an ability to convert DZN to DHD
